For series [1], the system named is Pan02-Luc hepatic metastasis. Nature of the series: Pan02-Luc liver metastasis model with bioluminescent imaging. The class given is in vivo, C57BL/6 mice. The following applies: L001 or E7046 75 mg/kg p.o. daily, gemcitabine 25 mg/kg i.p. twice a week; for reduction of Pan02 cell liver metastases (bioluminescence of separated livers) / reduction in median luminescence signal compared with vehicle control group: n = 6; for reduction in median luminescence signal compared with vehicle control group: day 28; for median survival: n = 9, control 34 days. On the procedure:
(§1) Male C57/BL6 mice (6–8 weeks) were obtained from the National Rodent Laboratory Animal Resources (NRLAR, Shanghai, China). All mice were housed according to Institutional Animal Care and Use Committee guidelines and under a protocol approved by East China Normal University Ethics Committee with respect to animal care and welfare assurance. The bioluminescent liver metastasis mouse model was established as described previously. In brief, 2 × 10^6 Pan02/luc cells suspended in 50 μL of PBS were injected into mice spleen. […] Tumor metastasis was monitored by using an in vivo imaging system following intraperitoneal injection with D-Luciferin (2 mg per mouse; Promega). Bioluminescence intensity was recorded every seven days by a Xenogen IVIS-200 Optical in vivo imaging system (PerkinElmer; Waltham, MA, USA) for up to 4 weeks. The mouse body weight was measured every other day. Survival curve analysis was performed using GraphPad Prism 7.
Mouse liver tissues were harvested, fixed, paraffin embedded, and sectioned (8 μm). The tissues were permeabilized with 0.25% TritonX-100 at room temperature for 15 min, blocked with 1% FBS in PBS, and followed by incubation in primary antibodies at 4 °C overnight: rabbit anti-YAP (1:50 dilution, ab205270, abcam). The sections were then washed with PBS, incubated with anti-rabbit secondary antibody for 2 h and dyed with DAPI (10 μg/mL in PBS) for 5 min at room temperature. Slides were mounted using DPX Mountant (Electron Microscopy Sciences) and images were obtained by inverted fluorescence microscope (Olympus, Tokyo, Japan).

For series [2], the system named is BxPC-3 cells. Nature of the series: Wound healing assay, BxPC-3. The class given is cell-based, human. Conditions: various concentrations of PGE2. As for the experimental part: (§2) The wound healing assay was performed according to a standard protocol as described before. Briefly, Pan02 and BxPC-3 cells were grown as a confluent monolayer in 12-well plates (Corning, Corning, NY, USA) overnight and starved with serum-free medium for 6 h. The monolayer cells were disrupted with a P100 micropipette tip (JET BIOFIL, Guangzhou, China) and rinsed with PBS to remove detached cells. Medium containing different concentrations of compounds was added subsequently. After 24 h, treated cells were stained with 2 μM calcein-AM (Yeasen, Shanghai, China) for 20 min and washed with PBS. Photos were taken of the area in the scraped zone of each dish at 100× magnification by using an inverted fluorescent microscope (OLYMPUS, Tokyo, Japan).

The test system of series [3] is YAP/TEAD reporter in BxPC-3 cells. Nature of the series: TEAD-driven luciferase reporter assay, BxPC-3. The class given is cell-based, human. The following applies: 16 h. On the procedure: (§3) CHO-K1 cells or pancreatic cancer cell lines were transfected with a cAMP responsive element (CRE) reporter or TEAD reporter using lipofectamine 2000 according to the manufacturer’s manual. […] Then, cells were lysed and luciferase activities were determined using Dual-Luciferase Reporter Assay Kit (Promega, Madison, WI, USA).
Background: Reporter assays use an easily measured gene product as a stand-in for the process of interest.

The subject of series [4] is YAP protein in Pan02 cells. Nature of the series: Western blotting of YAP protein, Pan02. Format: cell-based, murine. Conditions: 10 μM PGE2. On the procedure: (§4) Cells were lysed in RIPA lysis buffer with phosphatase and protease inhibitors (Calbiochem, San Diego, CA, USA) and denatured by heating at 100 °C for 10 min. Proteins were separated on 10% bis-tris polyacrylamide gels, transferred to nitrocellulose filter membranes (Millipore, Burlington, NJ, USA), and blocked with 5% BSA (Sangon Biotech, Shanghai, China). The membranes were incubated with the indicated primary antibodies overnight and subsequently probed with indicated secondary antibodies. Images of the blots were taken and analyzed by Odyssey imaging system (Li-COR Biosciences, Lincoln, NE, USA). The primary antibodies were listed as follows: Human-YAP (1:10,000 dilution, CY5381, abways); Mouse-YAP (1:1000 dilution, ab205270, abcam); EP4 (1:500 dilution, 101775, Cayman Chemical); GAPDH (1:10,000 dilution, Ab181602, abcam).
A general note: In western blotting, separated proteins are transferred to a membrane and probed.

In series [5] the test system is Pan02 cells. Nature of the series: Transwell migration assay, Pan02. Format: cell-based, murine. Conditions: 0.1 μM PGE2; 16 h. As for the experimental part:
(§5) The transwell assay was conducted as described previously, using 8 μm pore transwell inserts (Corning, NY, USA). Cells were suspended in serum-free DMEM and seeded into upper chambers at appropriate density. The bottom chamber was filled with DMEM supplemented with 10% fetal bovine serum and indicated concentrations of PGE2. The compounds were added in both upper and bottom chambers. […] Migrated cells were counted and quantified using image J.

Series [6] deals with YAP protein in BxPC-3 cells. Nature of the series: Western blotting of YAP protein, BxPC-3. The class given is cell-based, human. The following applies: 10 μM PGE2. On the procedure: as §4
In series [7] the test system is Pan02 cells. Nature of the series: Wound healing assay, Pan02. Format: cell-based, murine. The following applies: various concentrations of PGE2. As for the experimental part:
as §2

The subject of series [8] is BxPC-3 cells. Nature of the series: Transwell migration assay, BxPC-3. The class given is cell-based, human. The following applies: 0.1 μM PGE2; 16 h. On the procedure:
as §5

The subject of series [9] is YAP, CYR61, CTGF, Vimentin, Snail, E-cadherin mRNA in BxPC-3 cells. Nature of the series: Real-time qPCR of YAP, YAP target genes and EMT markers, BxPC-3. The class given is cell-based, human. The following applies: 10 μM PGE2. As for the experimental part: (§6) Total RNA was extracted from cells using TRIzol reagent. The cDNA was synthesized by RT-PCR kit (Vazyme Biotech, Nanjing, China). The band intensity was determined by the gel image analysis system (Bio-Rad, Hercules, CA, USA). SYBR Green-based qPCR (Yeason, Shanghai, China) was conducted subsequently. Relative mRNA levels of target genes were normalized with β-actin. The sequences of primers are listed in Supplementary Table S1. The raw data are listed in Supplementary Table S2.

In series [10] the test system is YAP, CYR61 and CTGF mRNA in Pan02 cells. Nature of the series: Real-time qPCR of YAP and YAP target genes, Pan02. Conditions: 10 μM PGE2. Format: cell-based, murine. As for the experimental part: as §6
(In general: In qPCR the cycle at which signal appears reflects the starting amount.)

The test system of series [11] is YAP/TEAD reporter in Pan02 cells. Nature of the series: TEAD-driven luciferase reporter assay, Pan02. Format: cell-based, murine. Conditions: 16 h. As for the experimental part:
as §3

Series [12] in a line: Body weight of mice in Pan02-Luc metastasis model. The class given is in vivo, C57BL/6 mice. Conditions: L001 75 mg/kg p.o. daily; gemcitabine 25 mg/kg i.p. twice a week; n = 6. On the procedure: as §1

The structures appear in SMILES notation.

For the compound `C[C@H](NC(=O)c1c(C(F)F)nn(C)c1Oc1cccc(C(F)(F)F)c1)c1ccc(C(=O)O)cc1` [E7046], in [1], the “H&E imaging of liver sections” value was “remarkably reduced metastatic clusters”, the “reduction of Pan02 cell liver metastases (bioluminescence of separated livers)” value amounted to 76.42%, the “reduction in median luminescence signal compared with vehicle control group” value is on record as 69.13% and the median survival is 35 days.
`CCCCC[C@H](O)/C=C/[C@H]1[C@H](O)CC(=O)[C@@H]1C/C=C\CCCC(=O)O` [PGE2, Prostaglandin E2, reference compound]: the “cell motility (wound closure) vs vehicle” value in series [2] and in series [7] was “significantly promoted the motility” throughout. Besides, the “max luminescence fold increase of TEAD-driven luciferase activity” value is 1.56 fold in series [3] and 1.87 fold in series [11]. Also, the “level of intracellular YAP protein over time” value in [4] and in series [6] was “significantly increased” each time. For the same compound, the “increase in migrated Pan02 cells” value in [5] was 1.2 fold. Also, the “increase in migrated BxPC-3 cells” value in series [8] was 2.5 fold. For the same compound, the “expression of YAP target genes CYR61 and CTGF over time” value in [9] and in series [10] was “elevated” in each case.
For the compound `Nc1ccn([C@@H]2O[C@H](CO)[C@@H](O)C2(F)F)c(=O)n1` [gemcitabine], in series [1], the “H&E imaging of liver sections” value was “remarkably reduced metastatic clusters”, the “reduction of Pan02 cell liver metastases (bioluminescence of separated livers)” value was 93.2%, the “reduction in median luminescence signal compared with vehicle control group” value is given as 91.79% and the median survival was found to be 46 days. For the same compound, in series [12], the body weight loss result was “barely found”.

For the origin of these results see article PMC8879074, “A Novel Small Molecular Prostaglandin Receptor EP4 Antagonist, L001, Suppresses Pancreatic Cancer Metastasis” (Molecules, 2022).
